Laboratory results from patent US20160209428A1, “DIAGNOSTIC AND PREDICTIVE METABOLITE PATTERNS FOR DISORDERS AFFECTING THE BRAIN AND NERVOUS SYSTEM” (THE REGENTS OF THE UNIVERSITY OF CALIFORNIA, priority 2013, published 2016).

Key:
[1] = system: Fragile X (Fmr1) knockout mouse; experiment: T-maze spontaneous alternation (novelty preference), Fragile X model; format: in vivo; settings: Fmr1 KO mice, weekly suramin 20 mg/kg ip
Text: A preference for novelty was estimated as spontaneous alternation behavior in the T-maze.

cerebral synaptosomes = experiment: Synaptosome isolation and ultrastructure (electron microscopy); format: in vivo, mouse; settings: suramin-treated Fmr1 KO mice
Text: Cerebral samples were collected, homogenized and synaptosomes isolated by discontinuous Percoll gradient centrifugation, drop dialyzed, glutaraldehyde fixed, post-fixed in osmium tetroxide, embedded, sectioned, and stained with uranyl acetate for transmission electron microscopy. Samples from the FVB control animals (+/−suramin) were not available for study by either electron microscopy or Western analysis.
In the present study of the Fragile X model, saline-treated Fmr1 knockout mice had cerebral synaptosomes that also contained an electron dense matrix, and fragile, hypomorphic post-synaptic densities.

[2] = system: cerebral synaptosomal protein; experiment: Western blot analysis of cerebral synaptosomal proteins, Fragile X model; format: in vivo, mouse; settings: Fmr1 KO mice
Text: Twenty μg of cerebral synaptosomal protein was loaded in SDS-polyacrylamide gels (Bis-Tris Gels) and transferred to PVDF membranes. The blots were first stained with Ponceau S, scanned, and the transfer efficiency was quantified by densitometry before blocking with 3% skim milk, and probing with primary and secondary antibodies for signal development by enhanced chemiluminescence (ECL).

[3] = Suramin quantitation in plasma and brain tissues by LC-MS/MS; format: in vivo, mouse
Method: Offspring of timed matings were weaned at 3-4 weeks of age into cages of two to four animals. No mice were housed in isolation. Only males were evaluated in these studies. Littermates were identified by ear tags and distributed into different cages in order to minimize litter and dam effects. […] Beginning 2 days later, behaviors were evaluated.
Tissue samples (brainstem, cerebrum and cerebellum) were ground into powder under liquid nitrogen in a pre-cooled mortar. Powdered tissue (15-50 mg) was weighed and mixed with the internal standard trypan blue to a final concentration of 5 μM (pmol mg^−1) and incubated at room temperature for 10 min to permit metabolite interaction with binding proteins. Nine volumes of methanol:acetonitrile:H2O (43:43:16) pre-chilled to −20° C. was added to produce a final solvent ratio of 40:40:20, and the samples were deproteinated and macromolecules removed by precipitation on crushed ice for 30 min. The mixture was centrifuged at 16 000 g for 10 min at 4° C. and the supernatant was transferred to a new tube and kept at −80° C. for further LC-MS/MS (liquid chromatography-tandem mass spectrometry) analysis. For plasma, 90 μl was used, to which 10 μl of 50 μM stock of trypan blue was added to achieve an internal standard concentration of 5 μM. This was incubated at room temperature for 10 min to permit metabolite interaction with binding proteins, then extracted with 4 volumes (400 μl) of pre-chilled methanol:acetonitrile (50:50) to produce a final concentration of 40:40:20 (methanol:acetonitrile:H2O) and precipitated on ice for 10 min. Other steps were the same as for solid tissue extraction.
Ten microliters of extract were injected onto a Kinetix pentafluorophenyl column (150×2.1 mm, 2.6 μm; Phenomenex, Torrance, Calif., USA) held at 30° C. for chromatographic separation. The mobile phase A was water with 20 mM ammonium acetate (NH4OAC; pH 7) and mobile phase B was methanol with 20 mM NH4OAC (pH 7). […] The flow rate was 300 μl min^−1. All the samples were kept at 4° C. during analysis. […] The electrospray ionization source parameters were set as follows: source temperature 500° C.; curtain gas 30; ion source gas 1, 35; ion source gas 2 35; spray voltage −4500V. Analyst 1.6.1 was used for data acquisition and analysis. N=4-6 per tissue. Results are reported as means±s.e.m. in absolute μM (pmol μl^−1) concentration for plasma, and pmol mg^−1 wet weight for tissues.
After completing the behavioral studies described above, mass spectrometry was used to measure drug levels in plasma, cerebrum, cerebellum and brainstem following a 5-week period of drug washout.

[4] = cerebral synaptosomes, suramin vs saline
[5] = cerebral synaptosomes, listed as suramin
[6] = 2 days after 20 mg kg^−1 i.p., control (Sal-Sur) or MIA (PIC-Sur) animals

Cc1ccc(C(=O)Nc2ccc(S(=O)(=O)O)c3cc(S(=O)(=O)O)cc(S(=O)(=O)O)c23)cc1NC(=O)c1cccc(NC(=O)Nc2cccc(C(=O)Nc3cc(C(=O)Nc4ccc(S(=O)(=O)O)c5cc(S(=O)(=O)O)cc(S(=O)(=O)O)c45)ccc3C)c2)c1 [Suramin, suramin]
deficient novelty preference (spontaneous alternation in T-maze) [1]: normalized | cerebral synaptosome ultrastructure (cerebral synaptosomes): near-normal appearing cerebral synaptosomes | proteins interrogated in cerebral synaptosomes that were changed ([2]; suramin vs saline): 17 of 54 | Response to Suramin KO-Sur/KO-Sal: 7-dehydrocholesterol reductase/7DHCR ([2]; cerebral synaptosomes): Up | Response to Suramin KO-Sur/KO-Sal: APC ([2]; cerebral synaptosomes): Down | Response to Suramin KO-Sur/KO-Sal: Acetyl-CoA acetyltransferase 2/ACAT2 ([2]; cerebral synaptosomes): None | Response to Suramin KO-Sur/KO-Sal: Akt ([2]; cerebral synaptosomes): decreased and Down | Response to Suramin KO-Sur/KO-Sal: Amyloid β (Aβ) precursor protein/APP ([2]; cerebral synaptosomes): Down | Response to Suramin KO-Sur/KO-Sal: C1qA ([2]; cerebral synaptosomes): Down | Response to Suramin KO-Sur/KO-Sal: CB1 ([2]; cerebral synaptosomes): Down | Response to Suramin KO-Sur/KO-Sal: CB2 ([2]; cerebral synaptosomes): unchanged and None | Response to Suramin KO-Sur/KO-Sal: CPY27A1 ([2]; cerebral synaptosomes): None | Response to Suramin KO-Sur/KO-Sal: Dopamine Receptor D4/D4R ([2]; cerebral synaptosomes): None | Response to Suramin KO-Sur/KO-Sal: ETFQO/ETFDH ([2]; cerebral synaptosomes): None | Response to Suramin KO-Sur/KO-Sal: Fragile X mental retardation protein/FMRP ([2]; cerebral synaptosomes): None | Response to Suramin KO-Sur/KO-Sal: GABA A Receptor beta 3/GABA-β3 ([2]; cerebral synaptosomes): None | Response to Suramin KO-Sur/KO-Sal: GluR1 ([2]; cerebral synaptosomes): Down | Response to Suramin KO-Sur/KO-Sal: HMGCoA Reductase/HMOCoAR ([2]; cerebral synaptosomes): None | Response to Suramin KO-Sur/KO-Sal: IP3R I ([2]; cerebral synaptosomes): Up | Response to Suramin KO-Sur/KO-Sal: Indoleamine 2,3-dioxygenase 1/IDO-1 ([2]; cerebral synaptosomes): None | Response to Suramin KO-Sur/KO-Sal: Metabotropic glutamate receptor 5/mGluR5 ([2]; cerebral synaptosomes): no effect and None | Response to Suramin KO-Sur/KO-Sal: Methionine Sulfoxide Reductase A/MSRA ([2]; cerebral synaptosomes): None | Response to Suramin KO-Sur/KO-Sal: Nicotinic Acetylcholine Receptor alpha 7/nAchR7 ([2]; cerebral synaptosomes): None | Response to Suramin KO-Sur/KO-Sal: Nitro Tyrosine ([2]; cerebral synaptosomes): None | Response to Suramin KO-Sur/KO-Sal: P2X1 ([2]; cerebral synaptosomes): None | Response to Suramin KO-Sur/KO-Sal: P2X2 ([2]; cerebral synaptosomes): None | Response to Suramin KO-Sur/KO-Sal: P2X3R ([2]; cerebral synaptosomes): Down | Response to Suramin KO-Sur/KO-Sal: P2X4 ([2]; cerebral synaptosomes): None | Response to Suramin KO-Sur/KO-Sal: P2X5 ([2]; cerebral synaptosomes): None | Response to Suramin KO-Sur/KO-Sal: P2X6 ([2]; cerebral synaptosomes): None | Response to Suramin KO-Sur/KO-Sal: P2X7 ([2]; cerebral synaptosomes): None | Response to Suramin KO-Sur/KO-Sal: P2Y1R ([2]; cerebral synaptosomes): Up | Response to Suramin KO-Sur/KO-Sal: P2Y2 ([2]; cerebral synaptosomes): None | Response to Suramin KO-Sur/KO-Sal: P2Y4 ([2]; cerebral synaptosomes): None | Response to Suramin KO-Sur/KO-Sal: PGC1a ([2]; cerebral synaptosomes): None | Response to Suramin KO-Sur/KO-Sal: PI3K ([2]; cerebral synaptosomes): decreased and Down | Response to Suramin KO-Sur/KO-Sal: PKC ([2]; cerebral synaptosomes): None | Response to Suramin KO-Sur/KO-Sal: PPAR beta/delta ([2]; cerebral synaptosomes): Up | Response to Suramin KO-Sur/KO-Sal: PPARa ([2]; cerebral synaptosomes): no effect and None | Response to Suramin KO-Sur/KO-Sal: Postsynaptic Density protein 95/PSD95 ([2]; cerebral synaptosomes): None | Response to Suramin KO-Sur/KO-Sal: Steroidogenic acute regulatory protein/StAR ([2]; cerebral synaptosomes): Up | Response to Suramin KO-Sur/KO-Sal: TAR DNA-binding protein 43/TDP43 ([2]; cerebral synaptosomes): Down | Response to Suramin KO-Sur/KO-Sal: TGFβ Receptor I ([2]; cerebral synaptosomes): None | Response to Suramin KO-Sur/KO-Sal: mTOR ([2]; cerebral synaptosomes): not observed and None | Response to Suramin KO-Sur/KO-Sal: nAchR beta2 ([2]; cerebral synaptosomes): None | Response to Suramin KO-Sur/KO-Sal: p-eIF2α(Ser51) ([2]; cerebral synaptosomes): None | Response to Suramin KO-Sur/KO-Sal: p-mTOR(ser2448) ([2]; cerebral synaptosomes): not observed and None | Response to Suramin KO-Sur/KO-Sal: pAkt(Ser473) ([2]; cerebral synaptosomes): None | Response to Suramin KO-Sur/KO-Sal: pAkt(Thr308) ([2]; cerebral synaptosomes): None | Response to Suramin KO-Sur/KO-Sal: pCAMKII(Thr286) ([2]; cerebral synaptosomes): None | Response to Suramin KO-Sur/KO-Sal: pERK1/2(Thr202/Tyr204) ([2]; cerebral synaptosomes): None | Response to Suramin KO-Sur/KO-Sal: pGSK3β (Ser9) ([2]; cerebral synaptosomes): Up | Response to Suramin KO-Sur/KO-Sal: pPERK(Thr980) ([2]; cerebral synaptosomes): None | Response to Suramin KO-Sur/KO-Sal: pPKC(Ser660) ([2]; cerebral synaptosomes): None | Response to Suramin KO-Sur/KO-Sal: pS6K(Thr389) ([2]; cerebral synaptosomes): Up | Response to Suramin KO-Sur/KO-Sal: pSTAT3(ser727) ([2]; cerebral synaptosomes): None | decrease of CB1 receptor expression [2, 4]: 16% | decrease of P2X3 receptor expression [2, 4]: 18% | decrease of ionotropic GluR1 expression [2, 4]: 15% | decrease of synaptosomal APP levels [2, 4]: 23% | decrease of synaptosomal C1qA [2, 4]: 24% | decrease of synaptosomal TDP43 [2, 4]: 27% | decrease of total APC expression [2, 4]: 29% | increase in IP3R1 expression [2, 4]: 101% | increase of 7-dehydrocholesterol reductase (7DHCR) [2, 4]: 24% | increase of P2Y1 receptor expression [2, 4]: 31% | increase of inhibitory phosphorylation of S6 kinase (S6K) [2, 4]: 47% | increase of inhibitory phosphorylation of glycogen synthase kinase 3β (GSK3β) [2, 4]: 75% | increase of steroidogenic acute regulatory (StAR) protein [2, 4]: 165% | Response to Suramin KO-Sur/KO-Sal: Nicotinic Acetylcholine Receptor alpha 7/nAchR7 [2, 5]: No effect | Response to Suramin KO-Sur/KO-Sal: P2X7 [2, 5]: No effect | Response to Suramin KO-Sur/KO-Sal: P2Y2 [2, 5]: No effect | Response to Suramin KO-Sur/KO-Sal: pCAMKII(Thr286) [2, 5]: No effect | Response to Suramin KO-Sur/KO-Sal: pERK1/2(Thr202/Tyr204) [2, 5]: No effect | increase of PPARβ expression ([2]; purified brain synaptosomes, suramin vs saline): 34% | brainstem suramin ([3]; 2 days after 20 mg kg^−1 i.p.): 5.15 pmol/mg | suramin in cerebellum [3, 6]: < 0.10 pmol mg^−1 wet weight | suramin in cerebrum [3, 6]: < 0.10 pmol mg^−1 wet weight | suramin in any tissue (plasma, cerebrum, cerebellum, brainstem) ([3]; after 5 weeks of drug washout): No suramin was detected | concentration at 2 days ([3]; male, mouse, plasma, ip, 2 days after 20 mg kg^−1 i.p.): 7.64 µM
